Experimental data from patent publication US5998488A, “Ophthalmic composition” (Lion Corporation, priority 1994, dated 1999).

Assay: Benzalkonium chloride adsorption test (soft contact lenses, lens not given)
Type: physicochemical
Details: α-cyclodextrin replaced by the other cyclodextrin
Procedure: The percent inhibition of benzalkonium chloride adsorption to commercially available soft contact lenses was determined by the following test.
Benzalkonium chloride adsorption test A 30-ml vial was charged with 10 ml of the solution and a soft contact lens was immersed therein. In a constant temperature tank at 25° C., the vial was shaken for 24 hours. After the contact lens was removed from the vial, the concentration of benzalkonium chloride in the solution was quantitatively determined by high performance liquid chromatography. A percent inhibition of adsorption was calculated according to the following formula.
As a control, the above procedure was repeated except that no contact lens was immersed.
Inhibition of adsorption (%)=(concentration of benzalkonium chloride in sample solution)/(concentration of benzalkonium chloride in control solution)×100
Solutions of the formulation shown in Table 7 were prepared to a total amount of 1,000 g in a conventional manner as used in the preparation of eye drops. Ophthalmic solutions of Examples 2 to 13 were obtained. The ophthalmic solutions were subject to the same tests as in Experiments 1 and 3. In the test of Experiment 3, the ophthalmic solutions were evaluated for antimicrobial activity according to the same criterion as before.

Compound | Inhibition of adsorption, cyclodextrin in place of α-cyclodextrin (in words)
OC[C@H]1O[C@@H]2O[C@H]3[C@H](O)[C@@H](O)[C@@H](O[C@H]4[C@H](O)[C@@H](O)[C@@H](O[C@H]5[C@H](O)[C@@H](O)[C@@H](O[C@H]6[C@H](O)[C@@H](O)[C@@H](O[C@H]7[C@H](O)[C@@H](O)[C@@H](O[C@H]8[C@H](O)[C@@H](O)[C@@H](O[C@H]9[C@H](O)[C@@H](O)[C@@H](O[C@H]1[C@H](O)[C@H]2O)O[C@@H]9CO)O[C@@H]8CO)O[C@@H]7CO)O[C@@H]6CO)O[C@@H]5CO)O[C@@H]4CO)O[C@@H]3CO [γ-cyclodextrin] | Approximately equivalent results
OC[C@H]1O[C@@H]2O[C@H]3[C@H](O)[C@@H](O)[C@@H](O[C@H]4[C@H](O)[C@@H](O)[C@@H](O[C@H]5[C@H](O)[C@@H](O)[C@@H](O[C@H]6[C@H](O)[C@@H](O)[C@@H](O[C@H]7[C@H](O)[C@@H](O)[C@@H](O[C@H]8[C@H](O)[C@@H](O)[C@@H](O[C@H]9[C@H](O)[C@@H](O)[C@@H](O[C@H]%10[C@H](O)[C@@H](O)[C@@H](O[C@H]1[C@H](O)[C@H]2O)O[C@@H]%10CO)O[C@@H]9CO)O[C@@H]8CO)O[C@@H]7CO)O[C@@H]6CO)O[C@@H]5CO)O[C@@H]4CO)O[C@@H]3CO [δ-cyclodextrin] | Approximately equivalent results
hydroxyethylated cyclodextrin | Approximately equivalent results
methylated cyclodextrin | Approximately equivalent results
